Values quoted from earlier work, collected in US4407746A, “Cyclohexyl and phenyl substituted enkephalins” (G. D. Searle & Co., priority 1981, dated 1983).

How the values were obtained:
rat = conditions: injected directly into the brain of the rat; Belluzi et al. 1976
[1] = test system: brain opiate receptor sites; conditions: partially purified brain opiate receptor sites; Bradberry et al. 1976

Substance: methionine enkephalin
- analgesic activity (rat): weak, fleeting analgesic activity
- binding to brain opiate receptor sites [1]: binds sterospecifically
